From ChEMBL document CHEMBL1130416, “Synthesis and biological activities of (R)-5,6-dihydro-N,N-dimethyl-4H-imidazo[4,5,1-ij]quinolin-5-amine and its metabolites” (J Med Chem, 1997)
pKi: −log10 of the molar value.

Assays:
[1] = target: T1, 5-hydroxytryptamine receptor 1A (Homo sapiens, UniProt P08908)
T1 sequence (P08908 whole entry): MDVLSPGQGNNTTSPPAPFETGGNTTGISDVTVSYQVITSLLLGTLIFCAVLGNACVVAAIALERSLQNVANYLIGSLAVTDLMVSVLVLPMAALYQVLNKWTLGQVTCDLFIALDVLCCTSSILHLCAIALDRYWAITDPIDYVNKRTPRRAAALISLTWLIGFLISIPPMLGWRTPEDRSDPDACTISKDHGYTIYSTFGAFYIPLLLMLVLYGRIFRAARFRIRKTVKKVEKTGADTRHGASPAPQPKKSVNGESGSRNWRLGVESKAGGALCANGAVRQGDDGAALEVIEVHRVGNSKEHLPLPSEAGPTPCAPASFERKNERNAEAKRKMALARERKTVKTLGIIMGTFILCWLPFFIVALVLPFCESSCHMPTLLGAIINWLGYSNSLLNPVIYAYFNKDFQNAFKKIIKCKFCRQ
Description: Binding affinity towards Serotonin 5-hydroxytryptamine 1A receptor by displacement of [3H]-(+)-8-OH-DPAT.

Canis familiaris [2] = organism: Canis familiaris; assay: Metabolism of compound in dog S9 microsomes ('++''indicates 20-50% largest observed peak); format: ADME, Canis lupus familiaris
[3] = Metabolism of compound in monkey S9 microsomes ('++''indicates 20-50% largest observed peak); format: ADME, Microsome; settings: cercopithecidae
[4] = Metabolism of compound in human liver slices (male) ('++''indicates 20-50% largest observed peak); format: ADME, tissue-based
[5] = Metabolism of compound in human microsomes ('+''indicates <20% largest observed peak); format: ADME, Microsome
Mus musculus [6] = organism: Mus musculus; assay: Metabolism of compound in mouse S9 microsomes ('+''indicates <20% largest observed peak); format: ADME
[7] = Metabolism of compound in rabbit S9 microsomes ('+''indicates <20% largest observed peak); format: ADME, Oryctolagus cuniculus, Microsome
[8] = Metabolism of compound in mini pig S9 microsomes ('+''indicates <20% largest observed peak); format: ADME, Sus scrofa, Microsome
D(2) dopamine receptor [9] = target: T2, D(2) dopamine receptor (Homo sapiens, UniProt P14416)
T2 sequence (P14416 whole entry): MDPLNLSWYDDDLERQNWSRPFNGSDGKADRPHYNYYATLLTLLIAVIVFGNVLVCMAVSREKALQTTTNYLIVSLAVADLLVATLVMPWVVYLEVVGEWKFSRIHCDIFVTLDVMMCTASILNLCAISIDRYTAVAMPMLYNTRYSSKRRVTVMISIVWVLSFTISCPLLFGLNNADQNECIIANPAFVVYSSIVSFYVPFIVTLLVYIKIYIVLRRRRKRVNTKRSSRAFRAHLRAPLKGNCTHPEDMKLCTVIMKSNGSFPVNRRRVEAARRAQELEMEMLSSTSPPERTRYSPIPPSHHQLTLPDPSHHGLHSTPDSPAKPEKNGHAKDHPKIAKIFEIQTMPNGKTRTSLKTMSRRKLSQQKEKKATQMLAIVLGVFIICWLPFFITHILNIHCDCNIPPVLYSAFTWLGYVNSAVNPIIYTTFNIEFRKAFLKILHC
Description: Binding affinity towards Dopamine receptor D2 by displacement of [3H]U-86170.

D(3) dopamine receptor [10] = target: T3, D(3) dopamine receptor (Homo sapiens, UniProt P35462)
T3 sequence (P35462 whole entry): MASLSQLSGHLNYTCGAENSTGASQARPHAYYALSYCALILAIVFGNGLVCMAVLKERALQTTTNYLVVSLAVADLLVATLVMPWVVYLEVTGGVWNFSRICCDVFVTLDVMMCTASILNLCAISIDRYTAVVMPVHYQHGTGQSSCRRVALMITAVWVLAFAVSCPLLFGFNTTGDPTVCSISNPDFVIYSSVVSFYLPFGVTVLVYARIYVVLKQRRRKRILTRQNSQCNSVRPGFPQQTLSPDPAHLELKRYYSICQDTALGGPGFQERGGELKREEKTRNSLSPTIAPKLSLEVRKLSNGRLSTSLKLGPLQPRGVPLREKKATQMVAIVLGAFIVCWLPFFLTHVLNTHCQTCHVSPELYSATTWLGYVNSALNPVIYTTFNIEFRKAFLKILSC
Description: Binding affinity towards Dopamine receptor D3 by displacement of [3H](+)-7-OH-DPAT.

Mus musculus [11] = assay: Hypothermic effects in mice when administered orally.; format: functional; settings: po
Mus musculus [12] = assay: Hypothermic effects in mice when administered subcutaneously.; format: functional; settings: sc
Rattus norvegicus [13] = organism: Rattus norvegicus; assay: Metabolism of compound in rat S9 microsomes ('+''indicates <20% largest observed peak); format: ADME
Rattus norvegicus [14] = organism: Rattus norvegicus; assay: The stability relative to the U-93385 compound.
[15] = target: T1, 5-hydroxytryptamine receptor 1A; remark: listed apart in the source
D(2) dopamine receptor [16] = target: T2, D(2) dopamine receptor; remark: listed apart in the source
D(3) dopamine receptor [17] = target: T3, D(3) dopamine receptor; remark: listed apart in the source
Canis familiaris [18] = organism: Canis familiaris; assay: Metabolism of compound in dog S9 microsomes; Trace; format: ADME, Canis lupus familiaris
[19] = Metabolism of compound in monkey S9 microsomes ('++++' indicates largest observed peak); format: ADME, Microsome; settings: cercopithecidae
[20] = Metabolism of compound in human microsomes; Trace; format: ADME, Microsome
Mus musculus [21] = organism: Mus musculus; assay: Metabolism of compound in mouse S9 microsomes ('++++' indicates largest observed peak); format: ADME
[22] = Metabolism of compound in rabbit S9 microsomes ('++++' indicates largest observed peak); format: ADME, Oryctolagus cuniculus, Microsome
[23] = Metabolism of compound in monkey S9 microsomes ('+''indicates <20% largest observed peak); format: ADME, Microsome; settings: cercopithecidae
[24] = Metabolism of compound in human liver slices (male) ('+''indicates <20% largest observed peak); format: ADME, tissue-based
Rattus norvegicus [25] = organism: Rattus norvegicus; assay: Metabolism of compound in rat S9 microsomes; Trace; format: ADME
Canis familiaris [26] = organism: Canis familiaris; assay: Metabolism of compound in dog S9 microsomes ('++++' indicates largest observed peak); format: ADME, Canis lupus familiaris
[27] = Metabolism of compound in monkey S9 microsomes ('+++'indicates 50-80% largest observed peak); format: ADME, Microsome; settings: cercopithecidae
[28] = Metabolism of compound in human liver slices (male) ('++++' indicates largest observed peak); format: ADME, tissue-based
[29] = Metabolism of compound in human microsomes ('++++' indicates largest observed peak); format: ADME, Microsome
Mus musculus [30] = organism: Mus musculus; assay: Metabolism of compound in Mouse S9 microsomes ('++++'indicates largest observed peak); format: ADME
Rattus norvegicus [31] = organism: Rattus norvegicus; assay: Metabolism of compound in rat S9 microsomes ('++++' indicates largest observed peak); format: ADME
[32] = Metabolism of compound in mini pig S9 microsomes ('++++' indicates largest observed peak); format: ADME, Sus scrofa, Microsome

SMILES: CN[C@@H]1Cc2cccc3ncn(c23)C1
- pKi [1]: < 5.49
- Metabolism (Canis familiaris [2]): Partially active
- Metabolism [3]: Partially active
- Metabolism [4]: Partially active
- Metabolism [5]: Partially active
- Metabolism (Mus musculus [6]): Partially active
- Metabolism [7]: Partially active
- Metabolism [8]: Partially active
- pKi (D(2) dopamine receptor [9]): 6.45
- pKi (D(3) dopamine receptor [10]): 5.61
- ED50 (Mus musculus [11]): 0.73 mg/kg
- ED50 (Mus musculus [12]): 0.31 mg/kg
- Metabolism (Rattus norvegicus [13]): Partially active
- Relative stability (Rattus norvegicus [14]): 0.86

SMILES: CN(C)[C@H]1Cc2cccc3nc(O)n(c23)C1
- ED50 (Mus musculus [12]): 17.3 mg/kg
- Ki [15]: Not Active
- Ki (D(2) dopamine receptor [16]): Not Active
- Ki (D(3) dopamine receptor [17]): Not Active

SMILES: CN(C)[C@@H]1Cc2cccc3[nH]c(=O)n(c23)C1
- Metabolism (Canis familiaris [18]): Partially active
- Metabolism [19]: Partially active
- Metabolism [4]: Partially active
- Metabolism [20]: Partially active
- Metabolism (Mus musculus [21]): Partially active
- Metabolism [8]: Partially active
- pKi (D(2) dopamine receptor [9]): 7.92
- pKi (D(3) dopamine receptor [10]): 5.71
- ED50 (Mus musculus [11]): 1.3 mg/kg
- ED50 (Mus musculus [12]): 0.41 mg/kg
- Metabolism (Rattus norvegicus [13]): Partially active
- Metabolism [22]: Partially active

SMILES: CCCN(CCC)CCc1cccc2c1CC(=O)N2 [ROPINIROLE]
- pKi [1]: 5.77
- pKi (D(2) dopamine receptor [9]): 8.14

SMILES: CN[C@@H]1Cc2cccc3[nH]c(=O)n(c23)C1 [SUMANIROLE]
- pKi [1]: 7.14
- Metabolism [23]: Partially active
- Metabolism [24]: Partially active
- Metabolism (Mus musculus [6]): Partially active
- Metabolism (Rattus norvegicus [25]): Partially active
- Metabolism [7]: Partially active
- pKi (D(3) dopamine receptor [10]): 5.63
- ED50 (Mus musculus [11]): 0.41 mg/kg
- ED50 (Mus musculus [12]): 0.73 mg/kg

SMILES: CC(C)C[C@H]1C(=O)N2CCC[C@H]2[C@]2(O)O[C@](NC(=O)[C@@H]3C=C4c5cccc6[nH]c(Br)c(c56)C[C@H]4N(C)C3)(C(C)C)C(=O)N12 [BROMOCRIPTINE]
- pKi [1]: 7.62
- pKi (D(2) dopamine receptor [9]): 8.00
- pKi (D(3) dopamine receptor [10]): 7.06

SMILES: CN(C)[C@H]1Cc2cccc3ncn(c23)C1
- ED50 (Mus musculus [12]): 17.3 mg/kg
- Ki [15]: Not Active
- Ki (D(2) dopamine receptor [16]): Not Active
- Ki (D(3) dopamine receptor [17]): Not Active

SMILES: CCCN[C@@H]1Cc2cccc3nc(O)n(c23)C1
- pKi (D(3) dopamine receptor [10]): 7.44
- ED50 (Mus musculus [11]): 0.41 mg/kg
- ED50 (Mus musculus [12]): 0.01 mg/kg

SMILES: CN(C)[C@@H]1Cc2cccc3ncn(c23)C1
- pKi [1]: < 5.45
- Metabolism (Canis familiaris [26]): Partially active
- Metabolism [27]: Partially active
- Metabolism [28]: Partially active
- Metabolism [29]: Partially active
- Metabolism (Mus musculus [30]): Partially active
- Metabolism (Rattus norvegicus [31]): Partially active
- Metabolism [7]: Partially active
- Metabolism [32]: Partially active
- pKi (D(2) dopamine receptor [9]): 5.89
- pKi (D(3) dopamine receptor [10]): 5.53
- ED50 (Mus musculus [11]): 0.073 mg/kg
- ED50 (Mus musculus [12]): 0.073 mg/kg
- Relative stability (Rattus norvegicus [14]): 1

SMILES: CN[C@H]1Cc2cccc3nc(O)n(c23)C1
- Ki [15]: Not Active
- Ki (D(2) dopamine receptor [16]): Not Active
- Ki (D(3) dopamine receptor [17]): Not Active
